Data as given in patent US20060111288A1, “Peripheral benzodiazepine receptor independent superoxide generation” (priority 2004, published 2006).

What was measured:
HL60 leukaemia cells [1] = assay: Mitochondrial membrane potential depolarisation (DiOC6(3) fluorescence, flow cytometry); format: cell-based, human
Protocol: (§1) HL60 promyelocytic leukaemia, Jurkat T cell leukaemia cells lacking the PBR,(18) (19) (kindly provided by Dr D. E. Banker and Dr F. Applebaum, The Fred Hutchinson Cancer Research Center, USA), and BV173 leukaemia cells were maintained in exponential suspension cultures in PPMI 1640 medium supplemented with 10% fetal calf serum, 5 mM glutamine, 100 μg/ml streptomycin and 100 U/ml penicillin. Cells were grown in a humidified atmosphere of 5% CO2/95% air at 37° C. PK11195 was dissolved in ethanol at a stock concentration of 8.7 mg/ml, and added to cells at a 75 μM final concentration for 4 hours; vehicle alone was also used in medium.
(§2) A Becton Dickinson FACScan (Oxford) was used to acquire 10,000 events using forward and scatter detectors with logarithmic amplification. Lymphoid enriched gates were defined. Corresponding DiOC6(3) or CMH2DCFDA fluorescence was analysed using the FL1 (530 nm) band pass filter. Propidium iodide or ethidium fluorescence were analysed using the FL3 (620 nm) band pass filter. List mode Data was analysed using WINMDI 2.8. Fluorescence microscopy was performed using a Zeiss Axioskop four colour florescence microscope with digital capture via a computer running IPLab Spectrum software.
(§3) Cells were incubated for 20 minutes at 37° C. in the dark with the cationic lipophillic (amphipathic) probe DiOC6(3) (80 nM), then counter stained for 10 minutes with propidium iodide (20 μg/ml). DiOC6(3) is sequestered within the mitochondrial matrix due to the inner membrane potential (ΔΨm), according to the Nernst equation, dissipation leading to a reduction in mitochondrial retention and decreased cellular DiOC6(3) fluorescence. Collapse of ΔΨm was prevented by incubating cells for 30 minutes with 50 μM bongkrekic acid. Events with increased propidium iodide fluorescence were subtracted, by gating, from the DiOC6(3) histograms to eliminate dead cells, with loss of plasma membrane integrity. Dose-response curves used the calculating the proportion of DiOC6(3) low cells as the dependent variable on the ordinate. To measure MPT directly, cells were incubated with 1 μM calcein AM for 30 minutes, followed by 1 mM […]. Cobalt quenches calcein fluorescence, but cannot traverse an intact inner mitochondrial membrane to enter the mitochondrial matrix, to which calcein equilibrates. Opening of the PTPC allows cobalt to enter, reducing calcein fluorescence.

DoHH2 cells = assay: Apoptosis induction in the presence and absence of the ROS scavenger MnTBAP; format: cell-based; settings: 24, 48, 72 hr, 1000 micromolar MPTP, 100 micromolar PK11195, 50 micromolar HA14-1, FIG. 5
Protocol: DoHH2 cells, a lymphoma cell line, were treated with MPTP, PK11195 and HA14-1 in the presence and absence of MnTBAP, a scavenger of ROS. […] MnTBAP inhibited MPTP-induced and PK11195-induced apoptosis, but not apoptosis induced by HA14-1. The three columns in each lane represent three time courses (L to R: 24 hr, 48 hr and 72 hr). […] The induction of apoptosis at the same time points as a result of treatment with 1000 micromolar MPTP is shown in lane “1000”.
The blockade of MPTP induction of apoptosis by MnTBAP parallels that of PK11195.
DoHH2 cells, a lymphoma cell line with high levels of the […] protein Bcl-2 due to a translocation between chromosome 14 and 18 (where the Bcl-2 gene is located), were exposed to MPTP, PK11195 and HA 14-1 in the presence and absence of the mitochondrial ROS scavenger, MnTBAP.

leukaemia cells = assay: Superoxide generation (dihydroethidium to ethidium fluorescence); format: cell-based
Protocol: as §2
(§4) O2^−· was detected by incubating cells for 15 minutes in 5 μM dihydroethidium, which is oxidized to ethidium. To test the effect of O2^−· […] on O2^−· generation, cells were treated with 100 μM MnTBAP for 45 minutes. Hydrogen peroxide was detected by loading cells for 30 minutes with 5 μM CM-H2DCFDA, and its formation inhibited by preincubation with 500 U/ml catalase for 30 minutes (21). Dose-response curves for CM-H2DCFDA used the calculated proportion of CM-H2DCFDA high cells as the dependent variable.

HL60 leukaemia cells [2] = assay: Direct measurement of MPT by calcein/cobalt quenching; format: cell-based, human; settings: calcein AM plus cobalt, FIG. 1D/1E
Protocol: as §3

HL60 cells = assay: Hydrogen peroxide generation (CMH2DCF fluorescence); format: cell-based, human
Protocol: as §2, §4

BV173 leukaemia cells = assay: Hydrogen peroxide generation (CMH2DCF fluorescence) in PBR-positive cells; format: cell-based; settings: PBR expressed, FIG. 3
Protocol: as §1, with “medium. O2^−· was detected by incubating cells for 15 minutes in 5 μM dihydroethidium, which is oxidized to ethidium. […] Hydrogen peroxide was detected by loading cells for 30 minutes with 5 μM CM-H2DCFDA, and its formation inhibited by preincubation with 500 U/ml catalase for 30 minutes (21). Dose-response curves for CM-H2DCFDA used the calculated proportion of CM-H2DCFDA high cells as the dependent variable.” for “medium.”

[3] = system: Jurkat T cell leukaemia cells; assay: Hydrogen peroxide generation (CMH2DCF fluorescence) in PBR-negative cells; format: cell-based; settings: PBR not expressed, FIG. 3
Protocol: as §1, with “medium. O2^−· was detected by incubating cells for 15 minutes in 5 μM dihydroethidium, which is oxidized to ethidium. […] Hydrogen peroxide was detected by loading cells for 30 minutes with 5 μM CM-H2DCFDA, and its formation inhibited by preincubation with 500 U/ml catalase for 30 minutes (21). Dose-response curves for CM-H2DCFDA used the calculated proportion of CM-H2DCFDA high cells as the dependent variable.” for “medium.”

[4] = system: primary chronic lymphatic leukaemia cells; assay: Apoptosis induction in primary leukaemia cells; format: cell-based; settings: primary chronic lymphatic leukaemia cells (higher NADPH oxidase than normal cells)
[5] = system: normal, non-malignant lymphocytes; assay: Apoptosis induction in normal lymphocytes; format: cell-based
[6] = system: peripheral benzodiazepine receptor (PBR); settings: references 1, 2; cited from earlier work

Molecule: CO[C@H](C/C=C\C=C\CC/C=C/C[C@H](C)/C=C/C(=C\C(=O)O)CC(=O)O)/C(C)=C\C=C(/C)C(=O)O [BA, Bongkrekic acid]
- effect of inhibitor on PK11195 mediated mitochondrial depolarisation (HL60 leukaemia cells [1]; pre-treatment with 50 μM bongkrekic acid for 30 minutes, FIG. 1C): prevented

Molecule: CCOC(=O)C1=C(N)Oc2ccc(Br)cc2C1C(C#N)C(=O)OCC (centres unmarked) [HA14-1]
- effect of MnTBAP on apoptosis induced by the compound (DoHH2 cells): not blocked

Molecule: CN1CC=C(c2ccccc2)CC1 [MPTP, 1-methyl-4-phenyl-1,2,3,6-tefrahydropyridine]
- effect of MnTBAP on apoptosis induced by the compound (DoHH2 cells): inhibited

Molecule: O=C(O)c1ccc(C2=C3C=CC(=N3)C(c3ccc(C(=O)O)cc3)=c3ccc([nH]3)=C(c3ccc(C(=O)O)cc3)c3ccc([n-]3)C(c3ccc(C(=O)O)cc3)c3ccc2[n-]3)cc1.[Cl-].[Mn+3] (centres unmarked) [MnTBAP, Manganese (III) tetrakis (4-benzoic acid) porphyrin chloride]
- effect on rate of PK11195 induced mitochondrial depolarisation (rate of reduction of DiOC6(3) fluorescence) (HL60 leukaemia cells [1]; presence vs absence of MnTBAP, FIG. 4C): Reduction in the rate of inner mitochondrial membrane depolarisation
- effect on PK11195 induced increase in ethidium fluorescence (leukaemia cells; 100 μM MnTBAP, FIG. 4B): inhibited

Molecule: CCC(C)N(C)C(=O)c1cc2ccccc2c(-c2ccccc2Cl)n1 (centres unmarked) [PK11195, 1-(2-chlorophenyl)-N-methyl-N-methyl-N-(1-methylpropyl)-isoquinoline carboxamide]
- time until reduction in DiOC6(3) fluorescence is detectable (HL60 leukaemia cells [1]; PK11195 treated): ≤ 3 h
- DiOC6(3) fluorescence (collapse of mitochondrial ΔΨm) (HL60 leukaemia cells [1]; PK11195 treated vs control, FIG. 1A/1B): reduction in DiOC6(3) fluorescence
- mitochondrial calcein fluorescence (MPT, open PTPCs) (HL60 leukaemia cells [2]): quenched
- concentration range in which CMH2DCF fluorescence increased (HL60 cells; HL60 cells, concentration dependent, FIG. 2A): 50 to 100 µM
- CMH2DCF fluorescence (generation of H202) (BV173 leukaemia cells): increase in CMH2DCF fluorescence
- CMH2DCF fluorescence (generation of H202) [3]: increase in CMH2DCF fluorescence
- ethidium fluorescence (O2−· generation) (leukaemia cells; following PK11195 treatment vs control, FIG. 4A): early increase in ethidium fluorescence
- effect of MnTBAP on apoptosis induced by the compound (DoHH2 cells): inhibited
- induction of apoptosis [4]: induces apoptosis
- induction of apoptosis [5]: does not do so
- binding affinity to the PBR [6]: nanomolar

Molecule: catalase
- effect on PK11195 induced increase in CMH2DCF fluorescence (HL60 cells; HL60 cells preincubated with catalase 500 U/ml, FIG. 2B): inhibited
